From patent US12048734B2, “Bioactive peptides and methods of use thereof” (OP-T LLC, priority 2020, dated 2024)

Legend:
[1] = Preliminary toxicity study, single IV bolus, rats; format: in vivo; conditions: 50 or 100 mg/kg bolus IV injection
Protocol: (§1) In a preliminary toxicity study rats and dogs were given a single dose of OPT 101 as an IV bolus. […] When OPT101 was administered to beagle dogs at 50 or 100 mg/kg by bolus IV injection OPT101 was not tolerated due to adverse clinical signs, including prostration, slight salivation, decreased activities, purple or red skin colored in the abdomen ventral, lateral ears or conjunctiva(s), lips, or periorbital, soft stool, medium food-like, red/brown, or small and frothy vomitus, increased respiratory rate, and labored breathing. Clinical pathology effects included increases in leukocyte count, erythrocyte and platelet counts.

[2] = Single dose dog study focused on cardiovascular effects, 30-minute IV infusion; format: in vivo, dogs
Protocol: Since some of the clinical signs were consistent with a drop in blood pressure, a single dose dog study was done, giving doses of 0.3, 1 or 100 mg/kg by a 30-minute IV infusion, and focused on cardiovascular effects. […] The 100 mg/kg group had much more severe clinical observations compared to 1 mg/kg. These effects were associated with decreases in blood pressure and heart rate for the dogs treated with 100 mg/kg. The blood pressure and heart rate returned to normal by 1 hour after end of infusion.

[3] = Preliminary toxicity study, single IV bolus, beagle dogs; format: in vivo
Protocol: as §1

human platelets = test: Human platelet aggregation in vitro by light transmission aggregometry; format: cell-based
From the text: It has been shown that using an anti-CD154 monoclonal therapeutic approach to interfere with the CD40-CD154 interaction there was efficacy in animal models, but in the clinical trial of one of the monoclonal antibodies there was binding to platelets resulting in emboli. Therefore, the clinical trials were halted (Kawai et al 2000, abstract). To determine if OPT101 has similar effects as the monoclonal antibody, an in vitro study was done with human platelets to determine if OPT101 would affect platelet aggregation, as measured by light transmission aggregometry. Platelet aggregation induced with adenosine diphosphate or collagen were not affected when treated with OPT101 at 0.1, 0.3, 3 or 30 μg/mL. […] Therefore, OPT101 had no impact on human platelet aggregation in vitro.

[4] = 8-week GLP repeat-dose toxicity study, 30-minute IV infusion, rats; format: in vivo
Protocol: Due to these adverse effects in the rats and dogs after a bolus IV injection, the administration of OPT101 was changed to IV infusion over 30 minutes for the definitive GLP toxicity studies. Rats and dogs were treated once a week for 8-weeks, by 30-minute IV infusions. The PK of OPT101 was also determined following the first and last dose in each study. […] The no observable adverse effect level (NOAEL) for OPT101 was considered to be the […] level. […] Due to the incidence and severity of the infusion reactions, the clinical signs were considered adverse at 100 and 400 mg/kg, but because of the lower incidence and severity at 10 mg/kg, the effects at the 10 mg/kg were considered non-adverse.

[5] = Single bolus IV dose histamine / immune mediator study in rats
bacterial mutation = test: Standard reverse bacterial mutation assay (Ames assay)
From the text: OPT101 was negative in the standard reverse bacterial mutation assay (Ames assay).

[6] = 8-week GLP repeat-dose toxicity study, 30-minute IV infusion, dogs; format: in vivo
Protocol: Rats and dogs were treated once a week for 8-weeks, by 30-minute IV infusions. The PK of OPT101 was also determined following the first and last dose in each study.

[7] = Character of infusion reactions in the animal studies; format: in vivo
From the text: There was clear difference between the infusion reactions seen in the rats and dogs, and IgE-mediated anaphylaxis or other antigen-dependent hypersensitivity. IgE/antigen-dependent degranulation of mast cells is associated with a sustained release of larger and more heterogeneously shaped granule structures, whereas peptide-activated mast cells rapidly secrete small and relatively spherical granule structures (Gaudenzio 2016). […] In addition, the infusion reactions were also elicited by a scrambled version of OPT101 (same amino acids but in a different sequence), showing the reaction was not OPT101-dependent.

[8] = Glucose tolerance and insulin sensitivity after KGYY6; format: in vivo, ApoE −/−mice
[9] = test system: CD3+CD4+CD40+(Th40) splenic cells; test: Overnight culture of Th40 splenic cells with KGYY6, inflammatory cytokines; format: cell-based, ApoE−/− mice; conditions: cultured overnight with varying concentrations of KGYY6; vs untreated cells
Protocol: CD3+CD4+CD40+(Th40) splenic cells were purified from ApoE−/− with cardiovascular disease. The cells were cultured overnight in the absence/presence of varying concentrations of KGYY6 peptide.

Th40 cells = test: Intracellular TGF in Th40 cells from ApoE−/− mice treated with KGYY6; conditions: ApoE−/− mice with cardiovascular disease treated with KGYY6 vs not treated; ex-vivo flow cytometry
Protocol: Th40 cells were purified from ApoE−/−mice with cardiovascular disease as well as from ApoE−/−mice that were treated with KGYY6. Immediately ex-vivo, the cells were stained for CD3, CD4, and CD40 and intracellular TGF and analyzed by flow cytometry. Cells were gated on CD3 then CD4 and CD40 for Th40 cells then levels of TGF were assessed.

conventional CD4 T cells = test: Intracellular IL-10 in conventional CD4 T cells ex-vivo at end of EAE experiment after KGYY6 treatment; parameters: species or system mice; conditions: draining lymph nodes (dLN); after 33 days; vs untreated animals; p=0.0145
From the text: FIG. 10 provides two graphs which show how KGYY-6 treatment alters IL-10 production by conventional CD4 T cells.
Intracellular cytokine expression profiles were examined in conventional CD4 T cells immediately ex-vivo at the end of the EAE experiment, after 33 days.

[10] = NDA 022150; cited from earlier work
[11] = 50 and 100 mg/kg IV injection, vs pretest values
[12] = 12.5 mg/kg bolus IV, 1-hour post-treatment

In the case of `CSCC[C@H](NC(=O)[C@@H](NC(=O)[C@H](Cc1ccc(O)cc1)NC(=O)[C@H](Cc1ccc(O)cc1)NC(=O)CNC(=O)[C@H](CCCCN)NC(=O)[C@H](CCCCN)NC(=O)[C@H](C)NC(=O)[C@H](Cc1c[nH]c2ccccc12)NC(=O)[C@H](CCC(N)=O)NC(=O)[C@H](CC(C)C)NC(=O)[C@@H](N)C(C)C)[C@@H](C)O)C(=O)N[C@@H](CCCCN)C(=O)N[C@@H](CO)C(=O)N[C@@H](CC(N)=O)C(=O)O` [OPT101, VLQWAKKGYYTMKSN], the mortality [1] is reported as “mortality of two rats”, the tolerability ([1]; single dose) is reported as “did not tolerate the treatment” and the “clinical observations or physiological changes” value ([2]; 0.3 mg/kg) is reported as “no clinical observations or physiological changes”. For the same compound, the “blood pressure and heart rate” value ([2]; 100 mg/kg) was “decreases”, the “time for blood pressure and heart rate to return to normal after end of infusion” value ([2]; 100 mg/kg) was ≤ 1 h and the “serum levels of histamine” value ([2]; 100 mg/kg, 5 and 30 minutes after start of infusion) was “significantly elevated”. The “body weight, food consumption, body temperature, respiratory rate and coagulation” value ([2]; 0.3, 1 or 100 mg/kg, 30-minute IV infusion, single dose) was “no OPT101-related body weight, food consumption, body temperature, respiratory rate and coagulation changes”, the “histamine related clinical observations” value ([2]; 1 and 100 mg/kg, much more severe at 100 mg/kg) was “salivation, vomitus, incontinence, discolored skin, swelling and rash” and the “no observable effect level (NOEL)” value ([2]; single dose, 30-minute IV infusion) was 0.3 mg/kg. The “assessment of clinical chemistry effects” value ([3]; 100 mg/kg) was “adverse”, the “alanine aminotransferase, aspartate aminotransferase, alkaline phosphatase, γ-glutamyltransferase, urea, creatinine, calcium, phosphorus, total bilirubin, creatine kinase” value [3, 11] was “notable increases” and the potassium [3, 11] was “decrease”. For the same compound, the “serum C5b-9 complement levels” value ([3]; 50 or 100 mg/kg) was “no increases”, the “decrease of fibrinogen (down to)” value ([3]; 50 or 100 mg/kg bolus IV) was 32% and the “increase of prothrombin time” value ([3]; 50 or 100 mg/kg bolus IV) was 288%. For the same compound, the “leukocyte count, erythrocyte and platelet counts” value ([3]; 50 or 100 mg/kg bolus IV) was “increases”, the tolerability ([3]; 50 or 100 mg/kg bolus IV injection, single dose) was “not tolerated” and the “histopathology evaluation of liver and kidney” value ([3]; bolus IV) was “no liver or kidney lesions”. The spontaneous platelet aggregation (human platelets; OPT101 at 30 μg/mL) was “no spontaneous platelet aggregation”, the “Platelet aggregation induced with adenosine diphosphate or collagen” value (human platelets; OPT101 at 0.1, 0.3, 3 or 30 μg/mL) was “not affected” and the tolerability ([4]; 10, 100 or 200 mg/kg/dose once a week for 8 weeks, 30-minute IV infusion) was “well tolerated and did not result in any adverse effects”. For the same compound, the NOAEL ([4]; rat, in vivo, rats, once weekly for 8 weeks, 30-minute IV infusion, read-out: no observable adverse effect level (NOAEL)) was 200 mg/kg, the thromboemboli ([4]; rats, 8-week toxicology study) was “no evidence of thromboemboli” and the “toxicity other than infusion reaction” value ([4]; rats, up to highest dose of 200 mg/kg, once weekly for 8 weeks, 200 mg/kg) was “no other adverse effects”. For the same compound, the “serum C3 levels (as measured by conversion to human SC5b-9)” value [5, 12] was “no decreases”, the “serum IFN-γ, TNF-α, IL-10, IL-4, IL-5, IL-6, IL-10, or IL-13 levels” value [5, 12] was “no changes” and the serum histamine levels ([5]; 12.5 mg/kg bolus IV, 10-minutes post-treatment) was “increased significantly”. The clinical observation ([5]; single bolus IV dose 12.5 mg/kg) was “consistent with a histamine reaction”, the “reverse bacterial mutation (Ames assay)” value (bacterial mutation) was “negative” and the “assessment of infusion reaction clinical signs” value ([6]; 10 mg/kg) was “non-adverse”. For the same compound, the “plasma drug levels versus dose” value ([6]; 8-week study, PK after first and last dose) was “increased with increasing dose”, the “infusion reactions, incidence” value ([6]; 10, 100, or 400 mg/kg/dose) was “in all treated animals” and the tolerability ([6]; 10, 100, or 400 mg/kg/dose once a week for 8 weeks, 30-minute IV infusion) was “well tolerated”. For the same compound, the “assessment of infusion reaction clinical signs” value ([6]; 100 and 400 mg/kg) was “adverse”, the NOAEL ([6]; dog, in vivo, dogs, infusion reaction, once weekly for 8 weeks, 30-minute IV infusion, read-out: no observable adverse effect level (NOAEL)) was 10 mg/kg and the thromboemboli ([6]; dogs, 8-week toxicology study) was “no evidence of thromboemboli”. The “toxicity other than infusion reaction” value ([6]; dogs, up to highest dose of 400 mg/kg, once weekly for 8 weeks, 400 mg/kg) was “no other adverse effects”, the drug accumulation ([6]; over the 8-week study) was “no marked drug accumulation” and the complement activation [7] was “no evidence of complement activation”. The “duration of clinical signs and release of histamine” value [7] was “very transient”.

With AKKGYY [KGYY6] the insulin sensitivity ([8]; p<0.005) was “statistically significant improvement”, the glucose tolerance ([8]; p<0.05) was “statistically significant improvement” and the “inflammatory cytokine IFNγ” value [9] was “varying degrees of reduction”. The “inflammatory cytokine IL-2” value [9] was “varying degrees of reduction”, the “inflammatory cytokine IL-17A” value [9] was “varying degrees of reduction” and the “production of TGF (intracellular, Th40 cells)” value (Th40 cells) was “decrease production of TGF”. The “intracellular IL-10 in conventional CD4 T cells” value (conventional CD4 T cells) was “increase in intracellular IL-10”.

In the case of “YKNVKQMAYWLTGKS [scrambled version of OPT101, reference compound]”, the infusion reactions [7] is reported as “also elicited”.

In the case of `NC(N)=NCCC[C@@H](N)C(=O)N[C@@H](CCCN=C(N)N)C(=O)N1CCC[C@H]1C(=O)N1C[C@H](O)C[C@H]1C(=O)NCC(=O)N[C@@H](Cc1cccs1)C(=O)N[C@@H](CO)C(=O)N1Cc2ccccc2C[C@@H]1C(=O)N1[C@H](C(=O)N[C@@H](CCCN=C(N)N)C(=O)O)C[C@@H]2CCCC[C@@H]21` [icatibant], the infusion reaction [10] is listed as “causes a reaction due to histamine release that is quickly reversed after end of infusion”.
